Assay [1] addresses T1, Acetylcholinesterase (Rattus norvegicus, UniProt P37136).
T1 sequence (P37136 whole entry): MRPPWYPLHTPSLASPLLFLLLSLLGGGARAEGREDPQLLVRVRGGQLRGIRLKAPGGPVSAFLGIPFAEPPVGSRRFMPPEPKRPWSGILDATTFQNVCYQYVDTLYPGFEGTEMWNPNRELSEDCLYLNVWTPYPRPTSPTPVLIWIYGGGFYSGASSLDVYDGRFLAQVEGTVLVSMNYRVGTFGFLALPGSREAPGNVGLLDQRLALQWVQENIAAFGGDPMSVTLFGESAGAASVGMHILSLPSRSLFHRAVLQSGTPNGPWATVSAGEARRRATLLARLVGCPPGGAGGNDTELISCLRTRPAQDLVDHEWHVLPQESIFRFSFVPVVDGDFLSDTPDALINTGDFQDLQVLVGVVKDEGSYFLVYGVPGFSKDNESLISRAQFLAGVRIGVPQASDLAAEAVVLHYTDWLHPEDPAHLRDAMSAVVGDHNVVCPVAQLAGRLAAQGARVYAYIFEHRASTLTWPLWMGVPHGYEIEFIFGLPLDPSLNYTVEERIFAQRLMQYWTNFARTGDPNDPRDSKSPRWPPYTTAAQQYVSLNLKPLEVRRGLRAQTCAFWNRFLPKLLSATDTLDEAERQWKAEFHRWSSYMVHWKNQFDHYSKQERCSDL
Description: Inhibitory potency against acetylcholinesterase (AChE) of rat cortex homogenate with ethopropazine as BChE inhibitor

Assay [2] concerns the target Butyrylcholinesterase (Rattus norvegicus, UniProt Q9JKC1).
Description: Inhibitory potency against rat serum Butyrylcholinesterase with BW284c51 as AChE inhibitor

What is called IC50 is the concentration needed to halve the response being measured.

Butyrylcholinesterase, sequence (Q9JKC1 whole entry): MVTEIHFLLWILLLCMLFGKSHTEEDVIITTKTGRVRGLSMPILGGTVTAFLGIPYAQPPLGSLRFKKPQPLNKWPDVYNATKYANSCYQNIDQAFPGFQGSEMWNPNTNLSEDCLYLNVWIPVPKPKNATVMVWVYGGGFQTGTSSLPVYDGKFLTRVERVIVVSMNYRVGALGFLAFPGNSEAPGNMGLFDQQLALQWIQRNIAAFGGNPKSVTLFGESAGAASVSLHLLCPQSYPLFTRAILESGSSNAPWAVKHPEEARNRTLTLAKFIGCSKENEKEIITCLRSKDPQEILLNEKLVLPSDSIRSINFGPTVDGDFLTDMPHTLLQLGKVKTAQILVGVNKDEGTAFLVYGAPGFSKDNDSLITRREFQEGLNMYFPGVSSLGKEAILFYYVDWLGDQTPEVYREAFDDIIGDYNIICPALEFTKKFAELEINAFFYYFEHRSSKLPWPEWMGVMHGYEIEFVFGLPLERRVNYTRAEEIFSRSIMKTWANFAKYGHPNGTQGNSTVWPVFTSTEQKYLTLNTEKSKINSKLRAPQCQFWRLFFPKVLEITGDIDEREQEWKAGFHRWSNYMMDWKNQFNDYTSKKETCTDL

With `Oc1ccc2c(n1)CCCC2NCCCCNc1c2c(nc3ccccc13)CCCC2` (racemic), the concentration for half-maximal inhibition (IC50) in assay [1] came to 42.6 nM; in assay [2], 228 nM.
On to `O=c1ccc2c([nH]1)CCCC2NCCCCCCCCNc1c2c(nc3ccccc13)CCCC2` (racemic), for which the IC50 in assay [1] stood at 26.2 nM; in assay [2] it was 166 nM.
The matching figures for `Oc1ccc2c(n1)CCCC2NCCCCCCNc1c2c(nc3ccccc13)CCCC2` (racemic): 37.1 nM and 223 nM.
On to `O=c1ccc2c([nH]1)CCCC2NCCCCCCCCCCNc1c2c(nc3ccccc13)CCCC2` (racemic), for which the midpoint of inhibition in assay [2], the IC50, lay at 81.5 nM.
Take `Oc1ccc2c(n1)CCCC2NCCCCCCCCCNc1c2c(nc3ccccc13)CCCC2` (racemic): the results for the 50% inhibitory concentration (IC50) in assay [1] and in assay [2] were 36.3 nM and 150 nM, respectively.
The matching figures for `O=c1ccc2c([nH]1)CCCC2NCCCCCCCCCCCCNc1c2c(nc3ccccc13)CCCC2` (racemic): 112 nM and 434 nM.
The matching figures for `Oc1ccc2c(n1)CCCC2NCCCCCNc1c2c(nc3ccccc13)CCCC2` (racemic): 122 nM and 220 nM.
As for `Oc1ccc2c(n1)CCCC2NCCCCCCCNc1c2c(nc3ccccc13)CCCC2` (racemic), the IC50 in assay [1] stood at 53.1 nM; in assay [2], 233 nM.
